Source: ChEMBL document CHEMBL1201862, “PubChem BioAssay data set” (2004)
The source made the active and inactive calls. Cut-off read from the data, not from the text of the source, for most assays here: actives have a measured EC50 and inactives only a lower limit.

Experiments:
[1] = system: BJ; test: cells; assay type: functional, cell-based; conditions: Homo sapiens
[2] = system: BJ; test: BJ-TERT fibroblast viability loss – cell-based, RAS-independent, luminescence, dose response (AID 1933); assay type: functional; conditions: Homo sapiens
[3] = system: H4; test: Luminescence Cell-Based Dose Response HTS to Identify Activators of 5'UTR Stem-Loop Driven Prion Protein mRNA Translation in H4 Neuroglioblastoma Cells. [Related pubchem assays: 1829 (Project Summary), 1814 (Primary HTS)]; assay type: functional; conditions: Homo sapiens
[4] = DRD fibroblast viability loss – cell-based, non-viral oncogenic, luminescence, dose response (AID 1934); assay type: functional; conditions: Homo sapiens
[5] = Luminescence Cell-Based Dose Response to Identify Activators of 5'UTR Stem-Loop Driven Prion Protein mRNA Translation in H4-C Neuroglioblastoma Cells. [Related pubchem assays: 1829 (Project Summary), 1814 (Primary HTS)]; assay type: functional
[6] = Luminescence Cell-Based Dose Confirmation to Identify Activators of 5'UTR Stem-Loop Driven Alpha-Synuclein mRNA Translation in H4 Neuroglioblastoma Cells. [Related pubchem assays: 1829 (Project Summary), 1814 (Primary HTS)]; assay type: functional
[7] = Luminescence Cell-Based Dose Response to Identify Activators of Luciferase Translation or Activity in H4-C Neuroglioblastoma Cells. [Related pubchem assays: 1829 (Project Summary), 1814 (Primary HTS)]; assay type: functional
[8] = Luminescence Cell-Based Dose Confirmation HTS to Identify Activators of 5'UTR Stem-Loop Driven Alpha-Synuclein mRNA Translation in H4 Neuroglioblastoma Cells. [Related pubchem assays: 1829 (Project Summary), 1814 (Primary HTS)]; assay type: functional
[9] = Luminescence Cell-Based Dose Response HTS to Identify Activators of Luciferase Translation or Activity in H4 […] Cells. [Related pubchem assays: 1829 (Project Summary), 1814 (Primary HTS)]; assay type: functional
[10] = system: BJ; test: BJ-TERT-LT-ST fibroblast viability loss – cell-based, RAS-independent, luminescence, dose response (AID 1935); assay type: functional; conditions: Homo sapiens;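 note: BJ fibroblasts immortalized with TERT plus LT and ST oncogenes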
[11] = target: T1, Streptokinase A (Streptococcus pyogenes serotype M1, UniProt P10520); test: viability-normalized secreted streptokinase activity reduction – plasminogen activation absorbance, OD405, dose response (AID 1914); assay type: functional, Streptococcus pyogenes M1 GAS;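 note: secreted streptokinase activity via plasminogen activation per viability signal from cell pellet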
T1 sequence (P10520 whole entry): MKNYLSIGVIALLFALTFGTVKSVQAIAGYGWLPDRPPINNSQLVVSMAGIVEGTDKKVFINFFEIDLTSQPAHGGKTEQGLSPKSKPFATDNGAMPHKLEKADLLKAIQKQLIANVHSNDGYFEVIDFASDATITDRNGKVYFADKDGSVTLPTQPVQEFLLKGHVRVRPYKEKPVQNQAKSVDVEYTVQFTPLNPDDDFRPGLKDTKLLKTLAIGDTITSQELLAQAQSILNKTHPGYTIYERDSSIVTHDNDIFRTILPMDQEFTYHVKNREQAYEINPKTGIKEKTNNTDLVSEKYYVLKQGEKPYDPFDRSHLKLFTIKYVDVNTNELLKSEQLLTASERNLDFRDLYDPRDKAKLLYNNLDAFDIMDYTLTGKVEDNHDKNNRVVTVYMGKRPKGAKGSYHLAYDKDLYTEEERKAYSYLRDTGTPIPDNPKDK

[12] = system: Streptococcus; test: GAS UMAA2166 growth inhibition – luminescence, BacTiterGlo, counter-screen for streptokinase expression inhibitor project, dose response (AID 1915); assay type: functional, organism-based;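 note: potency for reduction of bacterial viability or growth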
[13] = M. tuberculosis H37Rv growth inhibitors, H37Rv strain (AID 1626); assay type: functional
[14] = system: Streptococcus sp. 'group A'; test: Streptococcus pyogenes SK(-)GAS viability under kanamycin – luminescence, BacTiterGlo, confirmation, counter-screen for streptokinase expression inhibitor project, dose response (AID 1900); assay type: functional, organism-based
[15] = target: Ephrin type-A receptor 4 (Mus musculus, UniProt Q03137); test: EphA4 ligand-binding antagonists – biochemical, colorimetric, mouse EphA4, primary screen (AID 689); assay type: functional
Sequence of Ephrin type-A receptor 4 (Q03137 whole entry): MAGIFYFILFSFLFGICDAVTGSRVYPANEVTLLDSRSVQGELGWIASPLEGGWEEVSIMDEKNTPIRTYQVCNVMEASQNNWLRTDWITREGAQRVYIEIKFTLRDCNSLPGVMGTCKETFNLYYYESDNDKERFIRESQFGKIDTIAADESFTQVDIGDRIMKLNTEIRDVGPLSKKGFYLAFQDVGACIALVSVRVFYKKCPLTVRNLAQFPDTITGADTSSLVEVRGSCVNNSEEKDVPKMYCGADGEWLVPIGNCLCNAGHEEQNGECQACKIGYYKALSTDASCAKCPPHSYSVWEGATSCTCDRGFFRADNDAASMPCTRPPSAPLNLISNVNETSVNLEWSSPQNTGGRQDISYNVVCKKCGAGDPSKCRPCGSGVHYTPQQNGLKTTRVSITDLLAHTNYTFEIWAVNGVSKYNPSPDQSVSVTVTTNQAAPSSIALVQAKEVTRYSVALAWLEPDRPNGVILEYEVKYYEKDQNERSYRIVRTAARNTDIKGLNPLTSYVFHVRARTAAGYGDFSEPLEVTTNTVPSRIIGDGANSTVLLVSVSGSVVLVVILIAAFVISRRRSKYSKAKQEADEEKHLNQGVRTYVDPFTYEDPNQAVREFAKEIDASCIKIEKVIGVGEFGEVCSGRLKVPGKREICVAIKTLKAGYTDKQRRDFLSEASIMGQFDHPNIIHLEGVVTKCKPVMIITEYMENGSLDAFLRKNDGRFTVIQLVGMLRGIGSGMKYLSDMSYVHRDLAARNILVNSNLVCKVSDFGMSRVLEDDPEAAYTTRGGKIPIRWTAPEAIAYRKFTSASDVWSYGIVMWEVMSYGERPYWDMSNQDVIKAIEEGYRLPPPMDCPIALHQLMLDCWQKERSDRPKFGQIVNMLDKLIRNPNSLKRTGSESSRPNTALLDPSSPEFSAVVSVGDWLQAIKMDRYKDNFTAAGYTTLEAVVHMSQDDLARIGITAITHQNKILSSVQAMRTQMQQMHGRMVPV

[16] = Luminescence Cell-Based Dose Confirmation HTS to Identify Inhibitors of Polyadenylation.; assay type: functional
[17] = target: Protein-tyrosine kinase 2-beta (Homo sapiens, UniProt Q14289);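 note: potency of inhibitors of PYK2 kinase phosphorylation of poly-GT substrate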
Sequence of Protein-tyrosine kinase 2-beta (Q14289 whole entry): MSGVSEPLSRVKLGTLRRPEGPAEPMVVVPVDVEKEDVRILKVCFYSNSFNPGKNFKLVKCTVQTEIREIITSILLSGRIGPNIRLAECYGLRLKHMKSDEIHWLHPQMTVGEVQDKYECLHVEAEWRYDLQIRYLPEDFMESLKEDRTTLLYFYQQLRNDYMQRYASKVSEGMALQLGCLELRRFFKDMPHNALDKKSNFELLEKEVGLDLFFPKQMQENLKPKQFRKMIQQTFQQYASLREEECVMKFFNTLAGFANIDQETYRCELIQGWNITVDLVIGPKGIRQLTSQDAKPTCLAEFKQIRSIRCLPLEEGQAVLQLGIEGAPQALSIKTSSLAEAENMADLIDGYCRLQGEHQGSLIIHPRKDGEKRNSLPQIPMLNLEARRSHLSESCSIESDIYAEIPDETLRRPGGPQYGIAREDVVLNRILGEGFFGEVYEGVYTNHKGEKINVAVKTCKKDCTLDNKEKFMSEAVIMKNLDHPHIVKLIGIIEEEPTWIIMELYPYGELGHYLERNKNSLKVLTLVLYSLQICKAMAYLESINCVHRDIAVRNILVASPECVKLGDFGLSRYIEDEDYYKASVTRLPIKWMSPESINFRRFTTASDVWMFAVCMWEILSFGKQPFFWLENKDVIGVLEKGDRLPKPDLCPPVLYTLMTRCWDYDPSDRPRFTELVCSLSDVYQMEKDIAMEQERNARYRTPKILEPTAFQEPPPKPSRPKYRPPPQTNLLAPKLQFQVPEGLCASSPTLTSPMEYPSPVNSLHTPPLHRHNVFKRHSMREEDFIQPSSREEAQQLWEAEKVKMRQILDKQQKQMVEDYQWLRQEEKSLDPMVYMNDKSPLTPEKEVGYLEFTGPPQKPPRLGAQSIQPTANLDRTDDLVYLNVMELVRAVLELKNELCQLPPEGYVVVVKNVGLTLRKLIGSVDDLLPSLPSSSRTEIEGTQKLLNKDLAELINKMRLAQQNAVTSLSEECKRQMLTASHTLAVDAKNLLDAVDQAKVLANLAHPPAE

[18] = target: T2, Estrogen receptor beta (Homo sapiens, UniProt Q92731); test: blockers of SRC-3 recruitment to ERβ – biochemical, ELISA, streptavidin-HRP readout, orthogonal assay, confirmation (AID 1060)
T2 sequence (Q92731 whole entry): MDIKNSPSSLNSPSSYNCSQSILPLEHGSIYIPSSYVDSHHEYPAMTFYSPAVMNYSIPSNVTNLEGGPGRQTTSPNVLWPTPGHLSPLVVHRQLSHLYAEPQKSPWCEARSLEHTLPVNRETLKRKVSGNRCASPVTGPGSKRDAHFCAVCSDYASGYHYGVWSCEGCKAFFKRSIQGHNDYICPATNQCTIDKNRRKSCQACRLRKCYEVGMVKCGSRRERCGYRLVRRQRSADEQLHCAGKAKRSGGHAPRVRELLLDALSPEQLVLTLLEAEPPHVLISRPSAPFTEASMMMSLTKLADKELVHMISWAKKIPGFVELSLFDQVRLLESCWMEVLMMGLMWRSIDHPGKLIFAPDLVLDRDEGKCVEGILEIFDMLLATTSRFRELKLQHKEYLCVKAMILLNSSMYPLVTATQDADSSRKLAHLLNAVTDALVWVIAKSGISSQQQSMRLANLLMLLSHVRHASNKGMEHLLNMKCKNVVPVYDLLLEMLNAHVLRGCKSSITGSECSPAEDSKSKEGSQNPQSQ

[19] = target: T2, Estrogen receptor beta
[20] = target: T3, Rac GTPase-activating protein 1 (Homo sapiens, UniProt Q9H0H5); test: blockers of MgcRacGAP-driven Rac1 GTP hydrolysis – biochemical, ADP Hunter fluorescence, primary and confirmatory, confirmation (AID 624330); assay type: functional
T3 sequence (Q9H0H5 whole entry): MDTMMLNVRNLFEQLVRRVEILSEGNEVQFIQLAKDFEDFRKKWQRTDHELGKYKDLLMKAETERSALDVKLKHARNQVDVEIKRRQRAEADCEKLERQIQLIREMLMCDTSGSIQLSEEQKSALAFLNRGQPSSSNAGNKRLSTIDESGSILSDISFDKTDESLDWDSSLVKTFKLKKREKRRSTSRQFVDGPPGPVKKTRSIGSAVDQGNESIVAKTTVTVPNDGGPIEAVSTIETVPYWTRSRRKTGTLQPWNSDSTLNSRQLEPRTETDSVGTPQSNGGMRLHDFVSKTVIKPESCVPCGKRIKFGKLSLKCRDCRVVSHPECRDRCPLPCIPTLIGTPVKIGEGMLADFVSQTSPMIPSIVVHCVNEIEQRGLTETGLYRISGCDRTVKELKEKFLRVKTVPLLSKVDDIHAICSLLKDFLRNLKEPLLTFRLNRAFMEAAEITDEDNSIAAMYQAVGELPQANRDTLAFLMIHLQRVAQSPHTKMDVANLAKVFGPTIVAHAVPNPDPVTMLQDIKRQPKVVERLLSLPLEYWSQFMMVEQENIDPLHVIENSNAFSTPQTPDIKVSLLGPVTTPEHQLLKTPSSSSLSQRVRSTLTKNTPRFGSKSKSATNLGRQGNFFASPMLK

[21] = target: T4, Sentrin-specific protease 8 (Homo sapiens, UniProt Q96LD8); assay type: functional
T4 sequence (Q96LD8 whole entry): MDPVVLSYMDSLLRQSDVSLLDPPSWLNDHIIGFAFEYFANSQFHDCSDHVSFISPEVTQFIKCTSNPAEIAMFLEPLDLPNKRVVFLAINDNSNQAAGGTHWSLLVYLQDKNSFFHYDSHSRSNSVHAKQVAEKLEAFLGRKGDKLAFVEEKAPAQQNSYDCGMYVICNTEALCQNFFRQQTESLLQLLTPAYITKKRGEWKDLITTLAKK

[22] = target: T4, Sentrin-specific protease 8; assay type: functional; remark: listed apart in the source
[23] = target: Large T antigen (Simian virus 40, UniProt P03070); assay type: functional, Betapolyomavirus macacae;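 note: Confirmatory-stage PubChem screen for compounds that inhibit SV40 T antigen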
Sequence of Large T antigen (P03070 whole entry): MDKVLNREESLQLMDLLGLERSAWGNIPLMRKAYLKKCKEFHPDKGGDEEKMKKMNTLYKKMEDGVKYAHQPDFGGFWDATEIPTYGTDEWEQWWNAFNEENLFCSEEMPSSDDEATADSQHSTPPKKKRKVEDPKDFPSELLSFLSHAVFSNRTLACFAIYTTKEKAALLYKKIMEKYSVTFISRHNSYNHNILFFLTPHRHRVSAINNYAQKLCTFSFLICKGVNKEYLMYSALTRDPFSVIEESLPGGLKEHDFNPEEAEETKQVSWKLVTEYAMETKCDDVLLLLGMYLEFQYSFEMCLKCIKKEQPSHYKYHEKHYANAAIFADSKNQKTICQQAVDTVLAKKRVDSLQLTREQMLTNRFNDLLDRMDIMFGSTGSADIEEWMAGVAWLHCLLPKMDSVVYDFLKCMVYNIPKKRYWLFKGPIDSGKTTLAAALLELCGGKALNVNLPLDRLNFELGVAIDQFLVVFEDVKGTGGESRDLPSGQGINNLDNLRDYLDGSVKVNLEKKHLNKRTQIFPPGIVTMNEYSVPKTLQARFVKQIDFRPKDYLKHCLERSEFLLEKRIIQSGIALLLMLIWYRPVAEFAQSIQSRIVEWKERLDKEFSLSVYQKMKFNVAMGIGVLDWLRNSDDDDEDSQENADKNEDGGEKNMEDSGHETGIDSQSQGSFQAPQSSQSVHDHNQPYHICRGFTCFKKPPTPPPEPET

[24] = target: T5, Histone-lysine N-methyltransferase NSD2 (Homo sapiens, UniProt O96028); assay type: biochemical
T5 sequence (O96028 whole entry): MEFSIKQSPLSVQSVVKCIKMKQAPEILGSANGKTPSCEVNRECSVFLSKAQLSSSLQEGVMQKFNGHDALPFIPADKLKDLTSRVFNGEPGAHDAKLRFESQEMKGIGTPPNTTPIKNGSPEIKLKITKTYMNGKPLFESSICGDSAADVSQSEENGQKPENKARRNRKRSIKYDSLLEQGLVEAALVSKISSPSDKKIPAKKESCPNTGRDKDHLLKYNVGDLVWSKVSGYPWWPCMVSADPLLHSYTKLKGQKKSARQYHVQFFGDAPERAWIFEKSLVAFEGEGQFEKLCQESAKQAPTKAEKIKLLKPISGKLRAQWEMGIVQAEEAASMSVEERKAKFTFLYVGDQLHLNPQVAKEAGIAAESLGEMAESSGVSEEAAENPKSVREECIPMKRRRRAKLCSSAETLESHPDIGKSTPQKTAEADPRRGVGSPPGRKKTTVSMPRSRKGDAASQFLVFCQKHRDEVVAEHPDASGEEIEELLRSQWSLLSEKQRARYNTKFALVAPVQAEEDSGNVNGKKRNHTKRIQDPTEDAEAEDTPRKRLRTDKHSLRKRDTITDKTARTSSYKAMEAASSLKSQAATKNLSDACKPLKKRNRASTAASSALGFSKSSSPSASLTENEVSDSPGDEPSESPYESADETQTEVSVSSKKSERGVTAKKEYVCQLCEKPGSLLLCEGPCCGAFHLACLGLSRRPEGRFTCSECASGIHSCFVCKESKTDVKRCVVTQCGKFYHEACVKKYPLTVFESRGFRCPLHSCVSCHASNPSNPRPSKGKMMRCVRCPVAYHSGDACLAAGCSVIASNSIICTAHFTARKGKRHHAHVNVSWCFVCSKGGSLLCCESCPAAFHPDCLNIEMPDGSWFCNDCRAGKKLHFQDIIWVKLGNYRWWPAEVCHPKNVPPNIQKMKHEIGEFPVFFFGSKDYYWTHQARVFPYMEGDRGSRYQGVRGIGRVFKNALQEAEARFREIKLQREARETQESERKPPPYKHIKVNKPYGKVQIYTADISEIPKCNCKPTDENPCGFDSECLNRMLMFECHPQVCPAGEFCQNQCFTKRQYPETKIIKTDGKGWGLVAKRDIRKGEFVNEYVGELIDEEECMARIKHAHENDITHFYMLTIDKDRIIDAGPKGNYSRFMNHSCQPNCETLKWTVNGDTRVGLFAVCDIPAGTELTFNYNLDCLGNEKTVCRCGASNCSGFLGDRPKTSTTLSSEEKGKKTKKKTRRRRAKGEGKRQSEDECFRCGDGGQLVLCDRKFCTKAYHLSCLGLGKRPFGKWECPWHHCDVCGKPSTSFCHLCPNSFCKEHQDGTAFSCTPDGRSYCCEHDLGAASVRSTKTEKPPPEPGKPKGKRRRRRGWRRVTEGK

[25] = NIH3T3 cell viability loss – ATP luminescence, mouse fibroblasts, counter-screen, dose response (AID 2010); assay type: functional, cell-based;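 note: cells exposed to compound for about 90 hours before reading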
[26] = Trypanosoma cruzi growth suppression in host cells – NIH3T3 host cells, beta-gal luminescence, confirmation (AID 2044); assay type: functional, cell-based;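 note: intracellular parasites grown in NIH/3T3 mouse fibroblasts as host cells; luminescent beta-galactosidase reporter signal from transgenic T. cruzi replicating inside host cells; inhibitors lower the luminescence signal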
[27] = target: Genome polyprotein (dengue virus type 2, UniProt P29990); test: flavivirus cap methylation enzyme inhibition – biochemical, confirmation dose response, primary screen (AID 588689); assay type: functional
Sequence of Genome polyprotein (P29990 2492-3391 limits assumed): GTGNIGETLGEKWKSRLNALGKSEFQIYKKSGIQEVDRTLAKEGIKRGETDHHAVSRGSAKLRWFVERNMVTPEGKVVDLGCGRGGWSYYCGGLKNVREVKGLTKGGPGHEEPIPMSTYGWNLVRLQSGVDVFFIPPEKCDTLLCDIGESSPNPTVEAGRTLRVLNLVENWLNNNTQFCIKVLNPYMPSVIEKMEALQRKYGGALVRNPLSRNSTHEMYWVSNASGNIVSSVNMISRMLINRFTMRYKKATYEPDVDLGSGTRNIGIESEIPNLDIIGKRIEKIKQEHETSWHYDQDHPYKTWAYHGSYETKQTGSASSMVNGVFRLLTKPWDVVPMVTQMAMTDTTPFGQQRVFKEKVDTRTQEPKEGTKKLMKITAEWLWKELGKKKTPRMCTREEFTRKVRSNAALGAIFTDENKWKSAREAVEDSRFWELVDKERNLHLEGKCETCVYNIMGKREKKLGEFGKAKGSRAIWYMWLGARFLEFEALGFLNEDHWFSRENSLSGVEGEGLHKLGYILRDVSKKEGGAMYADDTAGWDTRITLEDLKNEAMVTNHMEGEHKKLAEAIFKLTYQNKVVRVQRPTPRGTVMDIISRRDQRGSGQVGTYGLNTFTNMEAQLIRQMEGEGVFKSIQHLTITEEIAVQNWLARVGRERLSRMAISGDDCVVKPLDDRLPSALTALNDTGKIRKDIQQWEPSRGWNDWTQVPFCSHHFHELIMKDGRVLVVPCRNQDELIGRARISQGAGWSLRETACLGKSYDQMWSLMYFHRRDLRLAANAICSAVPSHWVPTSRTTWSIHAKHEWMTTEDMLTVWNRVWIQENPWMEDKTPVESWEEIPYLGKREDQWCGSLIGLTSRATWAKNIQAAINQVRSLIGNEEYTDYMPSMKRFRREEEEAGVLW

[28] = target: Melanin-concentrating hormone receptor 1 (Homo sapiens, UniProt Q99705); test: Fluorescence-based counterscreen for antagonists of the G-protein coupled receptor 7 (GPR7): cell-based high throughput dose response assay to identify antagonists of the melanin-concentrating hormone receptor 1 (MCHR1).; assay type: functional
Sequence of Melanin-concentrating hormone receptor 1 (Q99705 whole entry): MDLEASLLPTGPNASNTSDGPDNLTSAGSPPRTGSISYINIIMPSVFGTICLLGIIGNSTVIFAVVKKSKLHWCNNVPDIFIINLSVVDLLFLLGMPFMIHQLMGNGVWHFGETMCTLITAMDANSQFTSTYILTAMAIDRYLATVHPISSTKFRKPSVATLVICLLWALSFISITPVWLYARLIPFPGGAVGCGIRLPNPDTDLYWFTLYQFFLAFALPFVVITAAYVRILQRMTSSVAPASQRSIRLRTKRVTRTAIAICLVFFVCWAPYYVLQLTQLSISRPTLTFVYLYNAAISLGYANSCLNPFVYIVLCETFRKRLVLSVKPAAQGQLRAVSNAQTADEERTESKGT

[29] = target: T6, Neuropeptides B/W receptor type 1 (Homo sapiens, UniProt P48145); test: Fluorescence-based dose response cell-based high throughput screening assay to identify antagonists of the G-protein coupled receptor 7 (GPR7). [Related pubchem assays: 1952 (Screening assay (GPR7 antagonists).), 1880 (Summary AID.)]; assay type: functional
T6 sequence (P48145 whole entry): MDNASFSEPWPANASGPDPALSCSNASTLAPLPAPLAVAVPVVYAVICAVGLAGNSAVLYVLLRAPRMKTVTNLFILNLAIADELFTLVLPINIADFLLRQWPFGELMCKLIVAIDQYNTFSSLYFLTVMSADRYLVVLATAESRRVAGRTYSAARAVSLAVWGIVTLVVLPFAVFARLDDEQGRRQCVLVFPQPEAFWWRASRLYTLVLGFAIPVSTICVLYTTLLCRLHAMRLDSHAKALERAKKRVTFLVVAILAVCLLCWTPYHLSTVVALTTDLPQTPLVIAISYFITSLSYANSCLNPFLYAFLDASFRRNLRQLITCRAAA

## N#CC1=C(SCC(=O)c2ccccc2)N=C2CCCC(O)=C2C1c1ccco1 (configuration not stated)
[1]
  EC50: 42.1 µM (inconclusive)
[2]
  EC50: 2.85 µM (active)
[3]
  EC50: > 120 µM (not active)
[4]
  EC50: 19.3 µM (inconclusive)
[5]
  EC50: 1.22 µM (active)
[6]
  EC50: 0.464 µM (active)
[7]
  EC50: 0.395 µM (active)
[8]
  EC50: > 120 µM (not active)
[9]
  EC50: < 0.1 µM (active)
[10]
  EC50: 18.9 µM (active)

## COc1ccc(OCCn2c(NC(=O)c3ccco3)nc3ccccc32)cc1
[11]
  EC50: > 150 µM (not active)
[12]
  EC50: > 150 µM (not active)
[13]
  IC50: > 100 µM (active)
[14]
  EC50: 5.47 µM (active)

## O=C(COC(=O)Cc1ccccc1F)Nc1ccc2c(c1)OCO2
[13]
  IC50: > 100 µM (active)

## Cc1nc2ccc(NC(=O)C(F)(F)F)cc2o1
[13]
  IC50: > 100 µM (active)

## CCn1c(COc2ccccc2C)nnc1SCC(=O)Nc1cc(C)on1
[15]
  IC50: > 100 µM (not active)

## COc1cc(C(=O)Nc2c(C)cc(C)cc2C)c(Br)c(OC)c1OC
[16]
  EC50: > 120 µM (not active)

## O=C1Nc2ccc(NS(=O)(=O)c3cccs3)c3cccc1c23
[17]
  IC50: 5.32 µM (active)

## O=C(Nc1ccc(O)cc1)C1CC=CCC1 (configuration not stated)
[18]
  IC50: 0.124 µM (not active)
[19]
  IC50: 3.2 µM (active)
[20]
  IC50: 40.7 µM (active)
[21]
  IC50: 25.1 µM (active)
[22]
  IC50: 19.1 µM (active)
[23]
  IC50: 16.4 µM (active)

## O=C(O)c1cccc(NC2=C(Cl)C(=O)c3ccccc3C2=O)c1
[24]
  AC50: 5.2 µM (active)
[3]
  EC50: 6.76 µM (active)
[25]
  EC50: 5.21 µM (active)
[5]
  EC50: > 12 µM (not active)
[26]
  EC50: > 30 µM (not active)
[6]
  EC50: > 12 µM (not active)
[7]
  EC50: 0.149 µM (active)
[27]
  IC50: 15.6 µM (active)
[8]
  EC50: 1.44 µM (active)
[9]
  EC50: < 0.1 µM (active)

## COc1ccc(C(CNC(=O)COc2ccc(Cl)c(C)c2)N2CCCCC2)cc1 (configuration not stated)
[28]
  IC50: 11.3 µM (not active)
[29]
  IC50: > 4.87 µM (active)
